This is an account of results in patent publication US20240360194A1, “New Peptides as Potent and Selective GIP Receptor Agonists” (Sanofi, priority 2021, published 2024).

The structures appear in SMILES notation. Numbered stars: 1 amine (or outer) side, 2 acyl side, 3 side chain; on linkers, the order of the positions; unused ones are H or OH. Square brackets hold non-standard residues; d marks the D form. Side chains are listed from the residue outwards. Peptide text beside a SMILES is read from it. * marks the point of attachment. C18 diacid = O=C(O)CCCCCCCCCCCCCCCCC(=O)*; γGlu = O=C(O)[C@H](CCC(=O)[*:2])N[*:1]; AEEA = NCCOCCOCC(=O)O; Aib = CC(C)(N)C(=O)O

Series [1] can be described thus: Pharmacokinetic evaluation in mice. The format is in vivo, female C57Bl/6 mice. Particulars: in vivo. On the procedure:
Compounds were administered in a suitable buffer system, e.g. PBS buffer solution at pH7.4 or DPBS solution at concentrations of 0.05, 0.1, 0.5 or 1 mg/ml depending on dose, species and administration volume. Female C57Bl/6 mice were dosed 0.25 mg/kg, 0.5 mg/kg or 1 mg/kg intravenously (i.v.) or subcutaneously (s.c.). The mice were sacrificed, and blood samples were collected after 0.08, 0.25, 0.5, 1, 2, 4, 8, 24, 32, and 48 h post i.v. application and 0.25, 0.5, 1, 2, 4, 8, 24, 32, and 48 h post s.c. application, respectively. Plasma samples were analysed after protein precipitation via liquid chromatography mass spectrometry (LC/MS). PK parameters and half-life were calculated using Phoenix-WinNonlin 8.1 using a non-compartmental model and linear trapezoidal interpolation calculation. Pharmacokinetic profiles were determined as described in Methods.

In a further series the test system is C57Bl/6 mice. As to the kind of experiment: Acute effects after s.c. treatment on blood glucose in an intraperitoneal glucose tolerance test (ipGTT). The conditions noted are these: for Blood glucose concentration AUC / Incremental blood glucose concentration AUCi: Example 14 study, mean ± SEM; for Blood glucose concentration AUC: vehicle 24.44; for Incremental blood glucose concentration AUCi: baseline corrected, vehicle 5.22. Format: in vivo, male C57Bl/6NCrl mice. From the text: Acute Effects after Subcutaneous (s.c.) Treatment on Blood Glucose in an Intraperitoneal (i.p.) Glucose Tolerance Test (ipGTT) in Healthy, Male C57Bl/6 Mice
Healthy, normoglycemic male C57Bl/6NCrl mice were ordered in an age of 9-10 weeks with an approximate body weight (BW) of 24-26 g at Charles River Laboratories Deutschland GmbH, 97633 Sulzfeld, Germany. Mice were shipped grouped housed (N=4 per cage), acclimatized for one week and remained grouped housed throughout the entire study. Mice were housed under vivarium conditions that included a 12 h light/dark cycle (light phase 06:00 AM-06:00 PM), mean room temperature of 22±2° C. and a relative mean humidity of 55±10%. All animals had free access to food (Ssniff R/M-H diet) and water prior to study start. At study start mice were between 10-11 weeks old.
The primary objective of the study was to investigate the compound-induced lowering of the blood glucose excursion and improvement of glucose tolerance in a mouse ipGTT setting and therefore the primary parameters included blood glucose, delta blood glucose (normalized to the time point just prior to the i.p. glucose challenge, t=0 h) and their respective calculated area under curve (AUC) values. The study was performed as an acute, single dosing study with 6 groups and the male animals were randomly divided to groups of 7-8 mice per group. Dose-dependent pharmacodynamic blood glucose lowering efficacy of the GIPR agonist was analyzed with s.c. injections 6 h before the i.p. glucose load in the dose range from 3 up to 100 nmol/kg and compared to the vehicle group as well as the semaglutide positive control at a dose of 10 nmol/kg.
In more detail, mice were fed overnight and on the following morning brought to the lab with food removed but ad libitum access to water. Blood samplings (5 μl) were performed at: −6.5, −0.5, 0, 0.17, 0.5, 1, 1.5, 2 and 3 h before and after the glucose bolus of 1 g glucose per kg BW i.p. given at time point t=0 h. On time point t=0.17 h an additional K-EDTA plasma sample from 60-80 μl blood was taken for plasma insulin analysis. Blood was withdrawn from the tip of the tail. The GIPR agonist and semaglutide were dissolved in 10 mM phosphate buffer pH 7.4 with 2.3% glycerol and 0.01% polysorbat 20 (vehicle) and s.c. treatment was performed −6 h before the glucose load (t=0 h) using an injection volume of 5 ml/kg. The injection solutions were freshly prepared prior to the experiment using sterile filtered vehicle solution. Blood glucose was determined enzymatically (Gluco-quant® Glucose/HK kit on Roche/Hitachi 912). Plasma insulin was determined using a mouse/rat insulin sandwich immunoassay kit from Meso Scale Discovery.
All data were collected using Microsoft Excel. None of the data were collected online. The results are expressed as means±standard error of the mean (SEM). As primary study parameters, blood glucose, baseline (time point t=0 h) subtracted delta blood glucose and their respective calculated area under curve (AUC) values were determined.
The statistical analysis of the ipGTT blood glucose excursion data response following subcutaneous compound or vehicle treatment was performed on the calculated AUC values of blood glucose raw data as well as the calculated AUC values for baseline subtracted delta blood glucose data. In a first step the Levene's test was used to test for equality of variances between groups. […] Where Levene's test was not significant (p>0.05) ANOVA was conducted without prior rank transformation. In a second step a One-way ANOVA analysis for factor treatment followed by Dunnett's multiple comparisons test vs. vehicle group was used to test for statistical differences. All analyses were performed using SAS (version 9.4) under Linux via the interface software EverSt@t V6.1.
Male C57Bl/6NCrl mice were fed overnight and on the following morning brought to the lab with food removed but adlibitum access to water. […]

Where [2] appears, read: female, C57Bl/6, mouse, iv, 0.25 mg/kg.
The mark [3] stands for this setting: female, C57Bl/6, mouse, sc, 0.5 mg/kg.

For the compound `CC[C@H](C)[C@H](NC(=O)[C@H](Cc1ccccc1)NC(=O)[C@H](CCC(=O)O)NC(=O)[C@H](CCC(=O)O)NC(=O)[C@H](CCC(N)=O)NC(=O)[C@H](Cc1c[nH]cn1)NC(=O)[C@@H](NC(=O)[C@H](CCCNC(=N)N)NC(=O)[C@H](CC(=O)O)NC(=O)[C@H](CCCCNC(=O)COCCOCCNC(=O)COCCOCCNC(=O)CC[C@H](NC(=O)CCCCCCCCCCCCCCCCC(=O)O)C(=O)O)NC(=O)C(C)(C)NC(=O)[C@@H](NC(=O)[C@H](CO)NC(=O)[C@H](CC(C)C)NC(=O)[C@H](CC(=O)O)NC(=O)[C@H](CO)NC(=O)[C@@H](NC(=O)[C@H](Cc1ccccc1)NC(=O)[C@@H](NC(=O)CNC(=O)[C@H](CCC(=O)O)NC(=O)C(C)(C)NC(=O)[C@@H](N)Cc1ccc(O)cc1)[C@@H](C)O)[C@@H](C)CC)[C@@H](C)CC)[C@@H](C)CC)C(=O)N[C@@H](CCC(N)=O)C(=O)N[C@@H](Cc1c[nH]c2ccccc12)C(=O)N[C@@H](CC(C)C)C(=O)N[C@@H](CC(C)C)C(=O)N[C@@H](C)C(=O)N[C@@H](CCC(N)=O)C(=O)NCC(=O)N1CCC[C@H]1C(=O)N[C@@H](CO)C(=O)N[C@@H](CO)C(=O)NCC(=O)N[C@@H](C)C(=O)N1CCC[C@H]1C(=O)N1CCC[C@H]1C(=O)N1CCC[C@H]1C(=O)N[C@@H](CO)C(N)=O` [SEQ ID NO: 35, H2N-Y-Aib-E-G-T-F-I-S-D-L-S-I-Aib-K[{AEEA}2-gGlu-C18OH]-DRIHQEEFIQWLLAQGPSSGAPPPS-NH2] (H-Y[Aib]EGTFISDLSI[Aib]K([AEEA-AEEA-γGlu-C18 diacid])DRIHQEEFIQWLLAQGPSSGAPPPS-NH2), the AUC(0-t) is 12.8 µg·h/mL in series [1] (setting [2]) and 21.8 µg·h/mL in series [1] (setting [3]). Also, the Cmax in series [1] (setting [2]) came out at 1.85 µg/mL; in series [1] (setting [3]) it was 1.4 µg/mL. The compound further showed a clearance in series [1] (setting [2]) of 0.0195 L/h/kg. Besides, the half-life in series [1] (setting [2]) is 6.19 h; in series [1] (setting [3]) it was 6.97 h. Moreover, the bioavailability in series [1] (setting [3]) was 86%. Also, the “Blood glucose concentration AUC” value is recorded as “+24.41 ± 0.743 mmol/L* 0-2 h” in the series with C57Bl/6 mice (3 nmol/kg s.c. 6 h before i.p. glucose), “+20.67 ± 0.516 mmol/L* 0-2 h” in the series with C57Bl/6 mice (10 nmol/kg s.c. 6 h before i.p. glucose), “+18.45 ± 0.308 mmol/L* 0-2 h” with C57Bl/6 mice (30 nmol/kg s.c. 6 h before i.p. glucose) and “+15.17 ± 0.452 mmol/L* 0-2 h” with C57Bl/6 mice (100 nmol/kg s.c. 6 h before i.p. glucose). Also, the “Incremental blood glucose concentration AUCi” value is reported as “+5.57 ± 0.454 mmol/L* 0-2 h” in the series with C57Bl/6 mice (3 nmol/kg s.c.), “+5.05 ± 0.432 mmol/L* 0-2 h” in the series on C57Bl/6 mice (10 nmol/kg s.c.), “+3.03 ± 0.225 mmol/L* 0-2 h” in the series with C57Bl/6 mice (30 nmol/kg s.c.) and “+1.76 ± 0.222 mmol/L* 0-2 h” with C57Bl/6 mice (100 nmol/kg s.c.). Also, the “minimal effective dose for improvement of i.p. glucose tolerance” value in the series with C57Bl/6 mice (single s.c. dose, C57Bl/6NCrl mice, vs. vehicle) was 10 to 30 nmol/kg.
Turning to `CC[C@H](C)[C@H](NC(=O)[C@H](CCCNC(=N)N)NC(=O)[C@H](CC(=O)O)NC(=O)[C@H](CCCCNC(=O)COCCOCCNC(=O)COCCOCCNC(=O)CC[C@H](NC(=O)CCCCCCCCCCCCCCCCC(=O)O)C(=O)O)NC(=O)C(C)(C)NC(=O)[C@@H](NC(=O)[C@H](CO)NC(=O)[C@H](CC(C)C)NC(=O)[C@H](CC(=O)O)NC(=O)[C@H](CO)NC(=O)[C@@H](NC(=O)[C@@](C)(CC)NC(=O)[C@@H](NC(=O)CNC(=O)[C@H](CCC(=O)O)NC(=O)C(C)(C)NC(=O)[C@@H](N)Cc1ccc(O)cc1)[C@@H](C)O)[C@@H](C)CC)[C@@H](C)CC)C(=O)N[C@@H](Cc1c[nH]cn1)C(=O)N[C@@H](CCC(N)=O)C(=O)NC(C)(C)C(=O)N[C@@H](CCC(=O)O)C(=O)N[C@@H](Cc1ccccc1)C(=O)N[C@H](C(=O)N[C@@H](CCC(=O)O)C(=O)N[C@@H](Cc1c[nH]c2ccccc12)C(=O)N[C@@H](CC(C)C)C(=O)N[C@@H](CC(C)C)C(=O)N[C@@H](C)C(=O)N[C@@H](CCC(N)=O)C(=O)N[C@@H](CCCNC(=N)N)C(=O)NCC(N)=O)[C@@H](C)CC` [SEQ ID NO: 16, H2N-Y-Aib-E-G-T-Iva-I-S-D-L-S-I-Aib-K[{AEEA}2-gGlu-C18OH]-D-R-I-H-Q-Aib-E-F-I-E-W-L-L-A-Q-R-G-NH2], in series [1] (setting [2]), the AUC(0-t) is 27.3 µg·h/mL, the highest concentration (Cmax) came to 5.04 µg/mL, the clearance was 0.00908 L/h/kg and the half-life is 7.33 h. In series [1] (setting [3]), this compound had an AUC(0-t) of 82.5 µg·h/mL, a maximum concentration (Cmax) of 4.59 µg/mL and a half-life of 5.69 h. This compound also gave a F in series [1] (mouse, sc, 0.5 mg/kg) of 150%.
